As usually defined, the IC50 is the concentration that inhibits the measured activity by half.

Data set [1] deals with gastrin receptor-expressing 3T3 cells. The class given is cell-based. The conditions noted are these: methods of Example 7. Here is the method: Isogenic cell lines, one transfected with the target cell surface receptor and the parent cell line without detectable receptor expression, were used for determination of selective activity of toxin conjugates. Transfection of NIH/3T3, CHO and HeLa cells (American Type Culture Collection, Manassas, Va.) with gastrin receptor cDNA (prepared as described in Tarasova et al., J. Biol. Chem. 272: 14817-14824 (1997)) was performed as described (Tarasova et al., J Biol. Chem. 272(23): 14817-14824 (1997)). For the tests, the cells were seeded in 96-well plates at a density of 500-1000 cells per well and allowed to attach for 24 hours. The compounds were added to the cells at concentrations ranging from 10 pM to 10 μM and the cells were grown in a CO2 incubator in the presence of compounds for 4-5 days. The cell number was estimated with either the methylthiazolyldiphenyl-tetrazolium bromide (MTT) assay (Alley et al., Cancer Res. 48(3): 589-601 (1988)) or sulforhodamine assay as described in Skehan et al., J. Natl. Cancer Inst. 82(13): 1107-1112 (1990)).

Data set [2] relates to cathepsin B and cathespin D.

Starred links: 1 amine or outer side, 2 acyl side, 3 side chain; linkers in the order of their positions; H or OH if unused. Non-standard residues stand in square brackets, D forms with d. Residues, ends and D or L forms follow the SMILES beside them. NMePhe(β,β-Me2) = CN[C@H](C(=O)O)C(C)(C)c1ccccc1; X1 = C/C(=C\[C@H](C(C)C)N(C)[*:1])C(=O)[*:2]; Tle = CC(C)(C)[C@H](N)C(=O)O; Nle = CCCC[C@H](N)C(=O)O

With `CCCC[C@H](NC(=O)[C@H](Cc1c[nH]c2ccccc12)NC(=O)CNC(=O)[C@H](Cc1ccc(O)cc1)NC(=O)[C@H](C)NC(=O)[C@H](CCC(=O)O)NC(=O)[C@H](CCC(=O)O)NC(=O)[C@H](CCC(=O)O)NC(=O)[C@H](C)NC(=O)[C@H](CC(C)C)NC(=O)[C@H](C)NC(=O)[C@H](CC(C)C)NC(=O)[C@@H](NC(=O)/C(C)=C/[C@H](C(C)C)N(C)C(=O)[C@@H](NC(=O)[C@@H](NC)C(C)(C)c1ccccc1)C(C)(C)C)C(C)C)C(=O)N[C@@H](CC(=O)O)C(=O)N[C@@H](Cc1ccccc1)C(N)=O` (H-[NMePhe(β,β-Me2)][Tle][X1]VLALAEEEAYGW[Nle]DF-NH2), the half-inhibitory concentration (IC50) in data set [1] came to 1 µM. The “products of hydrolysis by lysosomal proteases” value in data set [2] is “generated mostly pentapeptide or SPA110 extended by Val-Leu on the C-terminus”.

The record behind these values is US20050171014A1, “Conjugates of ligand linker and cytotoxic agent and related composition and methods of use” (Government of the United States of America, represented by …, priority 2003, published 2005).
